Values of other authors, collected in article PMC8978187, “Feasibility, Biodistribution, and Preliminary Dosimetry in Peptide-Targeted Radionuclide Therapy of Diverse Adenocarcinomas Using ^177Lu-FAP-2286: First-in-Humans Results” (Journal of Nuclear Medicine, 2022).
Like-named read-outs stand apart in the source and are kept apart here.

Columns and labels:
tumor = conditions: compared with ^177Lu-FAP-2286
Description: In our patient cohort, FAP expression was confirmed in these malignancies on PET/CT using ^68Ga-FAP-2286 or ^68Ga-FAPI-04.

[1] = patients
Description: These findings were further corroborated by dosimetric studies.

Structure (SMILES) | tumor washout and tumor retention time (tumor) | bone marrow absorbed dose [1] [Gy/GBq] | effective half-life in the kidneys [1] [h] | effective half-life in the whole body [1] [h] | kidney absorbed dose [1] [Gy/GBq] | whole-body absorbed dose [1] [Gy/GBq] | kidney absorbed dose, range ([1]; range) | absorbed dose in bone metastases ([1]; reported by Kulkarni et al.) [Gy/GBq] | absorbed dose in bone metastases ([1]; reported by Violet et al.) [Gy/GBq] | absorbed dose in bone metastases, range ([1]; reported by Violet et al., range)
N#C[C@@H]1CCCN1C(=O)CNC(=O)c1ccnc2ccc(OCCCN3CCN(C(=O)CN4CCN(CC(=O)O)CCN(CC(=O)O)CCN(CC(=O)O)CC4)CC3)cc12 [FAPI-02] | earlier tumor washout and a correspondingly shorter tumor retention time |  |  |  |  |  |  |  |  | 
N#C[C@@H]1CC(F)(F)CN1C(=O)CNC(=O)c1ccnc2ccc(OCCCN3CCN(C(=O)CN4CCN(CC(=O)O)CCN(CC(=O)O)CCN(CC(=O)O)CC4)CC3)cc12 [FAPI-04] | earlier tumor washout and a correspondingly shorter tumor retention time |  |  |  |  |  |  |  |  | 
O=C([O-])CN1CCN(CC(=O)[O-])CCN(CC(=O)NCC2CCC(C(=O)N[C@@H](Cc3ccc4ccccc4c3)C(=O)NCCCC[C@H](NC(=O)N[C@@H](CCC(=O)O)C(=O)O)C(=O)O)CC2)CCN(CC(=O)[O-])CC1.[177Lu+3] (some centres unmarked) [^177Lu-PSMA-617] |  | 0.03 | 42 | 40 | 0.99 | 0.04 | 0.45–1.6 Gy/GBq | 2.9 | 5.3 | 0.4–10.7 Gy/GBq
